How the values were obtained:
[1] = biological target: T1, CYP2B6 (Homo sapiens, UniProt P20813); format: in vitro ADME; set-up: purchased BD Biosciences Discovery Labware, Woburn, Mass; host or cells: baculovirus-infected insect cells; conditions: 50 μM megestrol acetate, 20 pmol CYP2B6
T1 sequence (P20813 1-491): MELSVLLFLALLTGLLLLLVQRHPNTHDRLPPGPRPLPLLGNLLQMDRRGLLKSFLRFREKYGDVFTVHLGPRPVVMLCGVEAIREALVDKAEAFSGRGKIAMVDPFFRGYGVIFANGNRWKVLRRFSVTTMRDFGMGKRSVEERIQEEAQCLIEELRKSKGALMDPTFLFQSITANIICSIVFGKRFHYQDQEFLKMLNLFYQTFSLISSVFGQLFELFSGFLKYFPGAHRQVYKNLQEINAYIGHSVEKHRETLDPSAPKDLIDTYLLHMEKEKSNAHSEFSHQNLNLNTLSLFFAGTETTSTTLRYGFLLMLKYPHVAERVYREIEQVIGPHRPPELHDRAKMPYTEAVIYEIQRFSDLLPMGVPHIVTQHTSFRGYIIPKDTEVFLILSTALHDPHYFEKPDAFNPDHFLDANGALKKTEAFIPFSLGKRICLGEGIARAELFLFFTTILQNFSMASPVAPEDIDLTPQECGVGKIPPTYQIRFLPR

[2] = biological target: T2, CYP2C8 (Homo sapiens, UniProt P10632); format: in vitro ADME; set-up: purchased BD Biosciences Discovery Labware, Woburn, Mass; host or cells: baculovirus-infected insect cells; conditions: 50 μM megestrol acetate, 20 pmol CYP2C8
T2 sequence (P10632 1-490): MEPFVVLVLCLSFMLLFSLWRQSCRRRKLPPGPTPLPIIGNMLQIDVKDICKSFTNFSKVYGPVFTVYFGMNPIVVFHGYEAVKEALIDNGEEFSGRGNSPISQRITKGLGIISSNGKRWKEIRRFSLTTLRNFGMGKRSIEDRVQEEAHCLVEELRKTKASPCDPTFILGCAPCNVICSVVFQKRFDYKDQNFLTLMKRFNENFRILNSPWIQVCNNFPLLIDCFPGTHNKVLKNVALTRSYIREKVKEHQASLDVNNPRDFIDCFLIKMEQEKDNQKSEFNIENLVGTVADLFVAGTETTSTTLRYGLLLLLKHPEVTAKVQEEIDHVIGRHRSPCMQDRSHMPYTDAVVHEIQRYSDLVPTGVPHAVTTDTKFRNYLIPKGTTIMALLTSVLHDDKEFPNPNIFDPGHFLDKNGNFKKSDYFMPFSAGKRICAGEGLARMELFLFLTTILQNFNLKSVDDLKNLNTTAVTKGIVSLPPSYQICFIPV

[3] = biological target: T3, CYP1A2 (Homo sapiens, UniProt P05177); format: in vitro ADME; conditions: 50 μM megestrol acetate, microsomes
T3 sequence (P05177 1-516): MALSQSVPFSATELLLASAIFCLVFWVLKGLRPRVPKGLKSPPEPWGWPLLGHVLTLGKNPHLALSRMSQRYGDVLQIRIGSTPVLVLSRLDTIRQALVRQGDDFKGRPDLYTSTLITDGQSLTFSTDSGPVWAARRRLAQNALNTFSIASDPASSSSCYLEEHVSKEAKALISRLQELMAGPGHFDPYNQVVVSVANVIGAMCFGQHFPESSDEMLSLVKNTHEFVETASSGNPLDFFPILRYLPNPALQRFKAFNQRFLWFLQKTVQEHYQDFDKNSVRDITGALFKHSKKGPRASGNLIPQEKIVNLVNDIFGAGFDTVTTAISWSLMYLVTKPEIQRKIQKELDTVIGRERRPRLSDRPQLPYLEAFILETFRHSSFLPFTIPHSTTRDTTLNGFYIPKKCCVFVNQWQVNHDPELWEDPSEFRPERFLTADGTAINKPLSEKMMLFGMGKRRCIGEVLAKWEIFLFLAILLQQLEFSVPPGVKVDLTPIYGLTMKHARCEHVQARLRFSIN

[4] = biological target: CYP2C19 (Homo sapiens, UniProt P33261); format: in vitro ADME; set-up: purchased BD Biosciences Discovery Labware, Woburn, Mass; host or cells: baculovirus-infected insect cells; conditions: 50 μM megestrol acetate, 20 pmol CYP2C19
CYP2C19, sequence (P33261 whole entry): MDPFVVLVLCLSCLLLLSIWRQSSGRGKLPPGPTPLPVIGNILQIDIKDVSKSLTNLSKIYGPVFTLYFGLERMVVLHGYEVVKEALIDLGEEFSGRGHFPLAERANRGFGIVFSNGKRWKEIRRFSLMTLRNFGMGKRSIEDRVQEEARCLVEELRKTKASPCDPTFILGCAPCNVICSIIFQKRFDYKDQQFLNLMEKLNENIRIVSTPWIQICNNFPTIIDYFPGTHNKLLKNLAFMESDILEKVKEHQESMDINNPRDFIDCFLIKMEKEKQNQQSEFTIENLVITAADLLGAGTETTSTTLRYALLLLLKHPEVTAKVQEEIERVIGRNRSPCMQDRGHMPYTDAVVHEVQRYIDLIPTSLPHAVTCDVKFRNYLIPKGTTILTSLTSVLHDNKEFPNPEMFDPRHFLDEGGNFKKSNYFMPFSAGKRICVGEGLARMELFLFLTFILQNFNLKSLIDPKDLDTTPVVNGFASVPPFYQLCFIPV

[5] = biological target: CYP2C9 (Homo sapiens, UniProt P11712); format: in vitro ADME; set-up: purchased BD Biosciences Discovery Labware, Woburn, Mass; host or cells: baculovirus-infected insect cells; conditions: 50 μM megestrol acetate, 20 pmol CYP2C9
CYP2C9, sequence (P11712 whole entry): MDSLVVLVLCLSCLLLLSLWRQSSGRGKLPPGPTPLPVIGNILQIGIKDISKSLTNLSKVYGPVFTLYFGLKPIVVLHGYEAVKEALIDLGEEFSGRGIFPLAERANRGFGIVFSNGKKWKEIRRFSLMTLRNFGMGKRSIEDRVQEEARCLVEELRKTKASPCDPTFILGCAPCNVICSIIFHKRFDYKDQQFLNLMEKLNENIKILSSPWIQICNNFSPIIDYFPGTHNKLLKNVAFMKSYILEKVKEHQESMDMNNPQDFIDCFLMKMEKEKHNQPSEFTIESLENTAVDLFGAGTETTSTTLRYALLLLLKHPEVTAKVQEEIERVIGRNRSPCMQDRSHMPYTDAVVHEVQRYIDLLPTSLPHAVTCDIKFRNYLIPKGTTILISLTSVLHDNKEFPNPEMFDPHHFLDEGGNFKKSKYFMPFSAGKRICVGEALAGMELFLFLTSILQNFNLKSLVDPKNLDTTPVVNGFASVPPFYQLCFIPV

[6] = biological target: T1, CYP2B6; conditions: 50 μM (with 1% methanol)
Experimental: All incubations were carried out in triplicates.

[7] = tested on: CYP2C8
[8] = biological target: CYP2E1 (Homo sapiens, UniProt P05181); format: in vitro ADME; set-up: purchased BD Biosciences Discovery Labware, Woburn, Mass; host or cells: baculovirus-infected insect cells; conditions: 50 μM megestrol acetate, 20 pmol CYP2E1
CYP2E1, sequence (P05181 whole entry): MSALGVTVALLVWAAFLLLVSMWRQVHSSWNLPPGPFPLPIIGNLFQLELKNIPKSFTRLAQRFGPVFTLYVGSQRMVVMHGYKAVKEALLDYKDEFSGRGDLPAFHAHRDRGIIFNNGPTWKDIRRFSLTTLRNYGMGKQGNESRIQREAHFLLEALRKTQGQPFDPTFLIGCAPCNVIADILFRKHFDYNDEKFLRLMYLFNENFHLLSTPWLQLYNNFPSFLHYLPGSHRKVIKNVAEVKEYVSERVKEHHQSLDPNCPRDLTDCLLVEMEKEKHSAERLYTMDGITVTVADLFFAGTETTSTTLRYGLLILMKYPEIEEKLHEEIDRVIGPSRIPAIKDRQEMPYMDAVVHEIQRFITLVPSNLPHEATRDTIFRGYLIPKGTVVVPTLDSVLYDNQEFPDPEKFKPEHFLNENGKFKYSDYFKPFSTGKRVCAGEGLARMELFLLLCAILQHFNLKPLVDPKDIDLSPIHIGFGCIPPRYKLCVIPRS

Compound: CC(=O)O[C@]1(C(C)=O)CC[C@H]2[C@@H]3C=C(C)C4=CC(=O)CC[C@]4(C)[C@H]3CC[C@@]21C [Megestrol Acetate, 17 α-acetyloxy-6-methylpregna-4,6-diene-3,20-dione]
- metabolites observed [1]: 1.23%
- megestrol acetate converted to its metabolites [2]: 0.72%
- difference in metabolism in the presence or absence of the inhibitor (LC/MS) [3]: no significant difference in metabolism
- metabolites detected [4]: 1.14%
- metabolites formed [5]: no metabolites observed
- Percent of Parent Disappearance Individual [6]: 54.8%
- percent metabolized in presence vs absence of inhibitor (unpaired two-tailed t-test) [7]: less than that of the percentage of megestrol acetate metabolized in the absence of the inhibitor
- Percent of Parent Disappearance Individual ([7]; 50 μM (with 100 μM Quercetin)): 7.51%
- metabolized in pooled human liver microsomes ([7]; human, microsomes, 60 min, pH 7.4): > 20%
- metabolites formed [8]: no metabolites were detected
